According to ChEMBL document CHEMBL3132769, “Fragment growing to retain or alter the selectivity of anchored kinase hinge-binding fragments” (Medchemcomm, 2014):

Key:
[1] = tested on: Tyrosine-protein kinase ABL1 (Homo sapiens), P00519 [T315I]; assay: Inhibition of human truncated ABL T315I mutant expressed in baculovirus assessed as substrate phosphorylation using fluorescence-labelled peptides as substrate at 95 uM after 90 mins by microfluidic peptide phosphorylation assay
[2] = biological target: Ribosomal protein S6 kinase alpha-2 (Homo sapiens) (UniProt Q15349); assay: Inhibition of human full length RSK3 expressed in baculovirus assessed as substrate phosphorylation using fluorescence-labelled peptides as substrate at 95 uM after 90 mins by microfluidic peptide phosphorylation assay
[3] = biological target: T1, Serine/threonine-protein kinase Sgk2 (Homo sapiens) (UniProt Q9HBY8); assay: Inhibition of human full length SGK2 expressed in baculovirus assessed as substrate phosphorylation using fluorescence-labelled peptides as substrate at 0.2 uM after 90 mins by microfluidic peptide phosphorylation assay
T1 sequence (whole entry): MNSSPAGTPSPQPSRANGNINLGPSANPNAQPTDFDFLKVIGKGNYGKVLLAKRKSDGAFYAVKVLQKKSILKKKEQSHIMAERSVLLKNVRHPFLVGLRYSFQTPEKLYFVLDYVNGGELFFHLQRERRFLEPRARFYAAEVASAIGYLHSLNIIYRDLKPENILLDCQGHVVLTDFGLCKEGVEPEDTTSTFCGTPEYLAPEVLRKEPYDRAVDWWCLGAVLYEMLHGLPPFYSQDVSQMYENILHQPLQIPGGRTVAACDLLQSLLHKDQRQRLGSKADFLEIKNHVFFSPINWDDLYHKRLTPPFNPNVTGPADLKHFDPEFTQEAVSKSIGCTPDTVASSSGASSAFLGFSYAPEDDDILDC

[4] = biological target: Proto-oncogene tyrosine-protein kinase Src (Homo sapiens) (UniProt P12931); assay: Inhibition of human full length SRC expressed in baculovirus assessed as substrate phosphorylation using fluorescence-labelled peptides as substrate at 8 uM after 90 mins by microfluidic peptide phosphorylation assay
Proto-oncogene tyrosine-protein kinase Src (Homo sapiens), sequence (P12931 2-536 limits assumed): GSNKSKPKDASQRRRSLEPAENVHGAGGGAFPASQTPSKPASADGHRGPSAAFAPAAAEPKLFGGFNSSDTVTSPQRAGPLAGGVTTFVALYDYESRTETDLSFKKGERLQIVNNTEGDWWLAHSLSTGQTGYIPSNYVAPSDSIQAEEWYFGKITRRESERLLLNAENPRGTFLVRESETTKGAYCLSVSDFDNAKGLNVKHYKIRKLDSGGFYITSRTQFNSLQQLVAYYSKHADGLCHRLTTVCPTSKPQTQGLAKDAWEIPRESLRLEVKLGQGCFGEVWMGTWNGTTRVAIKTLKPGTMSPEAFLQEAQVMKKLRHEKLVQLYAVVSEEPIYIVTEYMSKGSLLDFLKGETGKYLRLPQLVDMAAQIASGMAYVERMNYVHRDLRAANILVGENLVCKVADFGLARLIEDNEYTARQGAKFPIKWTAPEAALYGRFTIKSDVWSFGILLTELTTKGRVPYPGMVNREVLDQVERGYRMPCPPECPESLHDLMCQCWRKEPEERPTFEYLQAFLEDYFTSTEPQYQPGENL

[5] = biological target: T2, Mitogen-activated protein kinase 12 (Homo sapiens) (UniProt P53778); assay: Inhibition of human full length p38 gamma expressed in Escherichia coli cell assessed as substrate phosphorylation using fluorescence-labelled peptides as substrate at 8 uM after 90 mins by microfluidic peptide phosphorylation assay
T2 sequence (whole entry): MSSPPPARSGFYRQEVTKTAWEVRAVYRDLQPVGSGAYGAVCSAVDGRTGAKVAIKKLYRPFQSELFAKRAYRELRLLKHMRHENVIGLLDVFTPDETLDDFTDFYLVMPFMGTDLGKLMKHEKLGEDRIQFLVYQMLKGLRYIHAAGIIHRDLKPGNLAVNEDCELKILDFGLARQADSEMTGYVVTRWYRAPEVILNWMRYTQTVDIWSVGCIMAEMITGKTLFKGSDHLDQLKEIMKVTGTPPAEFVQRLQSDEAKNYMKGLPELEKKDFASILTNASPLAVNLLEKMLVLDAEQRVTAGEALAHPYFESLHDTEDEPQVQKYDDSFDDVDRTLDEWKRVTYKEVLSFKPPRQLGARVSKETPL

[6] = biological target: Serine/threonine-protein kinase MARK2 (Homo sapiens) (UniProt Q7KZI7); assay: Inhibition of human full length MARK2 expressed in baculovirus assessed as substrate phosphorylation using fluorescence-labelled peptides as substrate at 8 uM after 90 mins by microfluidic peptide phosphorylation assay
Serine/threonine-protein kinase MARK2 (Homo sapiens), sequence (Q7KZI7 whole entry, the tested form may be a part): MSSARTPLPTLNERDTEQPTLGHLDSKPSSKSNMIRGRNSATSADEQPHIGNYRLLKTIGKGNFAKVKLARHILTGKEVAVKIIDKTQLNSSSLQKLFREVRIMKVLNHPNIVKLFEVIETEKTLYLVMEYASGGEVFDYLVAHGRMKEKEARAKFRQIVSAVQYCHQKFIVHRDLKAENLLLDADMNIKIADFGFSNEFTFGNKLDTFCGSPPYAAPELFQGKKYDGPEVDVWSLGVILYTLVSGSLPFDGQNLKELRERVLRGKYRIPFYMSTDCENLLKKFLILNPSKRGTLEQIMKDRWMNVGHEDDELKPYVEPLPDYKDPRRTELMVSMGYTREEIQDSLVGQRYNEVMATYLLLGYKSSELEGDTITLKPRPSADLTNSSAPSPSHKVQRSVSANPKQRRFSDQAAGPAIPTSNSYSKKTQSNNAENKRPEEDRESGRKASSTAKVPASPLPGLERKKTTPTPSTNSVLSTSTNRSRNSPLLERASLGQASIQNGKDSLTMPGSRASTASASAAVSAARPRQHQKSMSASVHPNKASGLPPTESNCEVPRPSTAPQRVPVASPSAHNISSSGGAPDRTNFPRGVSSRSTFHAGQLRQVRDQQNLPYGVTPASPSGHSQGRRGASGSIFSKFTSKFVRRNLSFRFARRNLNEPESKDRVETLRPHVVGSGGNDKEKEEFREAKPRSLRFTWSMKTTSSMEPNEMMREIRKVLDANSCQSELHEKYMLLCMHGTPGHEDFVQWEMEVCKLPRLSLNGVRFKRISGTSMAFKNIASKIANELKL

[7] = biological target: Calcium/calmodulin-dependent protein kinase type II subunit beta (Homo sapiens) (UniProt Q13554); assay: Inhibition of human CAMK2 beta catalytic domain expressed in baculovirus assessed as substrate phosphorylation using fluorescence-labelled peptides as substrate at 2 uM after 90 mins by microfluidic peptide phosphorylation assay
Calcium/calmodulin-dependent protein kinase type II subunit beta (Homo sapiens), sequence (Q13554 whole entry, the tested form may be a part): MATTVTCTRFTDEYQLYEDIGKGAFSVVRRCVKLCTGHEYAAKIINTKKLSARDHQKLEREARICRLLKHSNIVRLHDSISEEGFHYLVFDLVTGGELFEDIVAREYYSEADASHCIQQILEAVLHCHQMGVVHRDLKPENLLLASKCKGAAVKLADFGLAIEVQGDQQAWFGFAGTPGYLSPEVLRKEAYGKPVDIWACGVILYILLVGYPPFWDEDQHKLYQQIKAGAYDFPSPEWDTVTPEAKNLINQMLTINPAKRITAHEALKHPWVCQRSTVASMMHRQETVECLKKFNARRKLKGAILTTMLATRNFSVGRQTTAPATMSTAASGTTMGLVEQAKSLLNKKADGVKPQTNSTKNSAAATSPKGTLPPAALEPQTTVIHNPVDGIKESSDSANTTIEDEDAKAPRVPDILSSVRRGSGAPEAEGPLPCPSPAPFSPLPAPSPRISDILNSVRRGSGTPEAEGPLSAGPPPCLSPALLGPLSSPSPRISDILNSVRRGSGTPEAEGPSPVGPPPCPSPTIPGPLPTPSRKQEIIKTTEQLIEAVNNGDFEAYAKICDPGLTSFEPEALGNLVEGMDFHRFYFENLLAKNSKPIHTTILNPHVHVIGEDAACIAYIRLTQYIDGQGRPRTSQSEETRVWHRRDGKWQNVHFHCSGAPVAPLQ

[8] = biological target: Mitogen-activated protein kinase 3 (Homo sapiens) (UniProt P27361); assay: Inhibition of human full length ERK1 expressed in Escherichia coli cell assessed as substrate phosphorylation using fluorescence-labelled peptides as substrate at 2 uM after 90 mins by microfluidic peptide phosphorylation assay
Mitogen-activated protein kinase 3 (Homo sapiens), sequence (P27361 whole entry): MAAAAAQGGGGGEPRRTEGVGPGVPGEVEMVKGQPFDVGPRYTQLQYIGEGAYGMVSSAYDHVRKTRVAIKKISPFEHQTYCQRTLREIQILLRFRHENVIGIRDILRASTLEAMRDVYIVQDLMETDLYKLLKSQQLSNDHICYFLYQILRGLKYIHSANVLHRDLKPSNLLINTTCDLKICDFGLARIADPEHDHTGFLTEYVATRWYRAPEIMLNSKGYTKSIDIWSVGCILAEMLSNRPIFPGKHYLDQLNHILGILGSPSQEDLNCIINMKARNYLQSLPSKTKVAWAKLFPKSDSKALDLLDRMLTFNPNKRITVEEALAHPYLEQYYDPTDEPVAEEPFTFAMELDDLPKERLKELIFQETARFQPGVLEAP

[9] = biological target: Tyrosine-protein kinase BTK (Homo sapiens) (UniProt Q06187); assay: Inhibition of human full length BTK expressed in baculovirus assessed as substrate phosphorylation using fluorescence-labelled peptides as substrate at 2 uM after 90 mins by microfluidic peptide phosphorylation assay
Tyrosine-protein kinase BTK (Homo sapiens), sequence (Q06187 whole entry, the tested form may be a part): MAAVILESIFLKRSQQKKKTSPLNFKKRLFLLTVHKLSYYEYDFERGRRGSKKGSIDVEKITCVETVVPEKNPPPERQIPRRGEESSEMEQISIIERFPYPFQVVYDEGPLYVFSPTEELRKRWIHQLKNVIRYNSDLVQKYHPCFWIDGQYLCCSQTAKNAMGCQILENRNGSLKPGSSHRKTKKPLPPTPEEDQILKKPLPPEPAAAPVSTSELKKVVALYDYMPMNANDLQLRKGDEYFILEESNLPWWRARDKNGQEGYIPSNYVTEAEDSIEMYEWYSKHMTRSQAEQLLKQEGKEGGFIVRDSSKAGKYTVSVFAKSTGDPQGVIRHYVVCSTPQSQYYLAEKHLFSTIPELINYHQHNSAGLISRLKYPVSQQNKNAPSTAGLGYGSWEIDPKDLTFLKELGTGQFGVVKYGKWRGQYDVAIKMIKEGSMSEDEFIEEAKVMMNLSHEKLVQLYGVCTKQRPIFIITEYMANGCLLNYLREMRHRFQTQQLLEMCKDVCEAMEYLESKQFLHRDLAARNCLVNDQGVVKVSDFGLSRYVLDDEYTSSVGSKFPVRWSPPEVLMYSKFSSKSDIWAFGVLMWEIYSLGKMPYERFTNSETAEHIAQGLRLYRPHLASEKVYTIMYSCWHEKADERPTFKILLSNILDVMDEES

[10] = tested on: Tyrosine-protein kinase ABL1 (Homo sapiens), P00519 [Q252H]; assay: Inhibition of human truncated ABL Q252H mutant expressed in baculovirus assessed as substrate phosphorylation using fluorescence-labelled peptides as substrate at 2 uM after 90 mins by microfluidic peptide phosphorylation assay
[11] = biological target: T3, MAP kinase-activated protein kinase 5 (Homo sapiens) (UniProt Q8IW41); assay: Inhibition of human full length PRAK expressed in baculovirus assessed as substrate phosphorylation using fluorescence-labelled peptides as substrate at 0.1 uM after 90 mins by microfluidic peptide phosphorylation assay
T3 sequence (whole entry): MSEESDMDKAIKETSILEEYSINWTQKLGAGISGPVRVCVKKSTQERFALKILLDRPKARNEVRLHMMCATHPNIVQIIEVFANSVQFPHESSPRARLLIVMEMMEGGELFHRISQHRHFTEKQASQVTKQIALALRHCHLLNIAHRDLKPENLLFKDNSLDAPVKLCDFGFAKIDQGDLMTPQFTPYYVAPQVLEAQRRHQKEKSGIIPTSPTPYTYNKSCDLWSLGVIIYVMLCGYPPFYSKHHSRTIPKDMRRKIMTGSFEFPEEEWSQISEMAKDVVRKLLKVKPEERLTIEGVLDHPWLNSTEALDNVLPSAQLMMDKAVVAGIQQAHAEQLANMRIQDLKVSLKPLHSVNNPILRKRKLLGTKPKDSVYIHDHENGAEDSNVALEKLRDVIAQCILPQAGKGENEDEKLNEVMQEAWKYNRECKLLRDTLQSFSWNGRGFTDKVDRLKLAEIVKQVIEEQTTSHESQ

[12] = biological target: Tyrosine-protein kinase Fyn (Homo sapiens) (UniProt P06241); conditions: 0.1 uM
Tyrosine-protein kinase Fyn (Homo sapiens), sequence (P06241 2-537 limits assumed): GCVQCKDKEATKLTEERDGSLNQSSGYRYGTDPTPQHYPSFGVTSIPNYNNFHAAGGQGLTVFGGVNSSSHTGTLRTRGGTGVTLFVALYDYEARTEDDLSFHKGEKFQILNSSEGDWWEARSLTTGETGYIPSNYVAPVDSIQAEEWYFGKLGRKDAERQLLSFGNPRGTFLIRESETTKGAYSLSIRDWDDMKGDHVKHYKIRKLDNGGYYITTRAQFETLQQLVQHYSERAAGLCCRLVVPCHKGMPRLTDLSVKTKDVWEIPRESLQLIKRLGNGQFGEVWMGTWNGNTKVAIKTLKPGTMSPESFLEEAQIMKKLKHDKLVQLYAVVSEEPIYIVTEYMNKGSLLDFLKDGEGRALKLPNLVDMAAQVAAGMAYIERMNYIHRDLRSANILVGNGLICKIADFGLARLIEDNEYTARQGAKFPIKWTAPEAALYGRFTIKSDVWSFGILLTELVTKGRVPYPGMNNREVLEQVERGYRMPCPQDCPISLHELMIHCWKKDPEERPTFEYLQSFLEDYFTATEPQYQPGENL
Description: Inhibition of human full length FYN expressed in baculovirus assessed as substrate phosphorylation using fluorescence-labelled peptides as substrate at 0.1 uM after 90 mins by microfluidic peptide phosphorylation assay

[13] = biological target: Glycogen synthase kinase-3 beta (Homo sapiens) (UniProt P49841); assay: Inhibition of human full length GSK-3 beta expressed in baculovirus assessed as substrate phosphorylation using fluorescence-labelled peptides as substrate at 420 uM after 90 mins by microfluidic peptide phosphorylation assay
Glycogen synthase kinase-3 beta (Homo sapiens), sequence (P49841 whole entry, looked up, the tested form may be a part): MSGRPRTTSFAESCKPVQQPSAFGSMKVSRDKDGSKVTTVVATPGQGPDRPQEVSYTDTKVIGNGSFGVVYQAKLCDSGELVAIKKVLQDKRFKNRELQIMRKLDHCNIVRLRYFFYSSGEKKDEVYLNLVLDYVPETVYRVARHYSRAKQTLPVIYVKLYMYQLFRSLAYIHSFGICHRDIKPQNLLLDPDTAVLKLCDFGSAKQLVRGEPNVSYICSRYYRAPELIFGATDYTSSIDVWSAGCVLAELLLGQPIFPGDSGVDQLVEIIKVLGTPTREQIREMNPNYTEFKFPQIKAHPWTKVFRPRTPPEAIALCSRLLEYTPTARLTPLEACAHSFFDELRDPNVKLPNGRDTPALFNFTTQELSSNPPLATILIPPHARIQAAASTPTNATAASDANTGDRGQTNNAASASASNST

[14] = biological target: Protein kinase C gamma type (Homo sapiens) (UniProt P05129); assay: Inhibition of human truncated PKC gamma expressed in baculovirus assessed as substrate phosphorylation using fluorescence-labelled peptides as substrate at 420 uM after 90 mins by microfluidic peptide phosphorylation assay

`NCCc1ccc(-c2ncnc3[nH]cnc23)cc1` gave an inhibition [1] of 53% and an inhibition [2] of 89%.
For `Clc1ccc(C2(c3ccc(-c4ncnc5[nH]cnc45)cc3)CCNCC2)cc1`, the inhibition [3] was 23.5%.
For `NCC1CCN(c2ncnc3[nH]ccc23)CC1`, the inhibition [4] was 1.5%, the inhibition [5] was 5% and the inhibition [6] was 37%.
Work on `NC1CCN(c2ncnc3[nH]ccc23)CC1` yielded an inhibition [7] of 25.5%, an inhibition [8] of 1% and an inhibition [9] of 0.5%. It also gave an inhibition [10] of 17%.
`C[C@H](CN(C)C)Oc1nc(Nc2cc3cccc(Cl)c3cn2)cnc1C#N` was tested, and the inhibition [11] was 3.5% and the inhibition [12] was 0%.
Compound `c1nc(N2CCOCC2)c2nc[nH]c2n1` has an inhibition [13] of 90% and an inhibition [14] of 66%.
